Source: patent publication US20040091935A1, “Strains of Mycoplasma hyorhinis as causative agent for systemic sclerosis” (priority 2002, published 2004)
Entries after “also recorded” stand apart in the source; their conditions may differ. Starred links: 1 amine or outer side, 2 acyl side, 3 side chain; linkers in the order of their positions; H or OH if unused. Positions of bridges follow the written chain, without caps; N, C: chain ends. Non-standard residues stand in square brackets, D forms with d. Residues, ends and D or L forms follow the SMILES beside them. Chains are numbered I, II in the order given. Actinocin(9to1) = Cc1c2oc3c(C)ccc(C(=O)[*:1])c3nc-2c(C(=O)[*:2])c(N)c1=O; NMeV = CN[C@H](C(=O)O)C(C)C; Sar = CNCC(=O)O

Tested on: Mycoplasma hyorhinis
Assay: Plaque assay of the infectious agent on Vero cell monolayers with antibiotics
Type: cell-based
Conditions: ciprofloxacin 0.5 mg/ml, doxicycline 1 mg/ml, antibiotic added for 24 hours or 7 days, assay sensitivity 10 pfu/ml, FIG. 12

SMILES | Plaque formation induced by the infectious agent
C[C@H]1c2cccc(O)c2C(O)=C2C(=O)[C@]3(O)C(O)=C(C(N)=O)C(=O)[C@@H](N(C)C)[C@@H]3[C@@H](O)[C@@H]21 [doxicyclin] | prevented plaque formation; also recorded: inhibited
Cc1c2oc3c(C)ccc(C(=O)N[C@@H]4C(=O)N[C@H](C(C)C)C(=O)N5CCC[C@H]5C(=O)N(C)CC(=O)N(C)[C@@H](C(C)C)C(=O)O[C@@H]4C)c3nc-2c(C(=O)N[C@@H]2C(=O)N[C@H](C(C)C)C(=O)N3CCC[C@H]3C(=O)N(C)CC(=O)N(C)[C@@H](C(C)C)C(=O)O[C@@H]2C)c(N)c1=O [actinomycin D] (I: T[dV]P[Sar][NMeV] / II: T[dV]P[Sar][NMeV]; ester I:1-I:C, II:1-II:C; linker I:N-II:N via Actinocin(9to1)) | prevented plaque formation
